{"source": "patent US7323174B1", "about": "“Modulation of immune response and methods based thereon” (Arizona Board of Regents on behalf of The University of …, priority 2000, dated 2008)", "origin": "cited, not measured here", "key": {"[1]": {"system": "Th1 and Th2 cytokine production", "settings": "individuals infected with an immunodeficiency-type retrovirus; described in U.S. Pat. No. 5,911,990"}, "[2]": {"system": "immunodeficiency-type retrovirus", "settings": "individuals infected with an immunodeficiency-type retrovirus; described in U.S. Pat. No. 5,911,990"}}, "note": "No end group written: not given here."}
{"sequence": "CKPISGHNSLFWYRQT [SEQ ID NO:1]", "values": [{"measurement": "aberrant Th1 and Th2 cytokine production", "setting": "[1]", "value": "normalize aberrant Th1 and Th2 cytokine production"}, {"measurement": "progression to AIDS", "setting": "[2]", "value": "suppress progression to AIDS"}]}
